In ChEMBL document CHEMBL1145890, “Synthesis, characterization, and in vitro antitumor activity of osteotropic diam(m)ineplatinum(II) complexes bearing a N,N-bis(phosphonomethyl)glycine ligand” (J Med Chem, 2003):

System: CH1
Assay: Antiproliferative activity in human ovarian cancer cell line (CH1) using MTT assay
Format: functional, cell-based

| Sequence | IC50 [µM] |
| --- | --- |
| CARBOPLATIN | 2.5 |
| OXALIPLATIN | 0.27 |
